# Assay results published in patent publication US9265268B2, “Method of handling bananas” (priority 2009, dated 2016).
# Key:
# Type in all cases: in vivo, Musa
# bananas [1] = experiment: Example 2X: evaluation process X (extended storage at 14° C.); settings: non-zero 1-MCP
# Text: Bananas were harvested at 13 weeks of age. Fruit bunches were separated into hands, then washed, and excess latex was removed in chlorinated water tanks using standard commercial practices. The washed hands of bananas were further broken into clusters and treated with fungicide. Clusters were placed into plastic bags; each bag held approximately 1.4 kg (3 lbs) of bananas. The bananas remained in these bags until they were removed for evaluation (see below).
# At day 5 at approximately 4 pm, the bananas had reached color stage 2.5 to 3.5. Treatment groups PE-3-C, PE-10-C, MAP-3, and MAP-10 were then exposed to 1-MCP overnight at the concentrations shown above.
# Some of the bananas from each group described in Example 2 were evaluated by process “X” as follows: After treatment groups PE-3-C, PE-10-C, MAP-3, and MAP-10 received exposure to 1-MCP, the bananas remained in their bags and were held at approximately 14° C. The bananas were inspected daily while they remained in the bags.
# bananas [2] = experiment: Example US-1: bananas transferred to MAP after shipment
# Text: Bananas were harvested and shipped in to Ephrata, Pa., using standard commercial practices, in standard commercial shipping bags. For shipping, bags were placed in cartons; each carton held sufficient bags so that there were approximately 18.1 kg (40 lb.) of bananas in each carton.
# After arrival in Ephrata, Pa., bananas were removed from the bags in which they were shipped and placed into new bags, which were either MAP (as described above) or T-bags (as described above). The new bags held approximately 1.3 kg (3 lb.) each. The new bags were twisted and secured shut. Bags were exposed to the 5-day ripening method used in Example 2 above. After ripening, the bags were transported to Spring House, Pa. in a refrigerated truck. Upon arrival, color stage of the bananas was 3.5 to 4.5. Bags were then placed into sealed tents for 12 hours at 13.3° C. […] After that 12-hour period, samples were aired for 1 hour and then kept in place at 13.3° C. (56° F.) for 10 hours and then transferred to an evaluation room, which was maintained at 17.8° C. (64° F.).
# All bags remained in the evaluation room for 8 days. Bananas were visually inspected each day, whether they were still in bags or not. The bags were divided into three groups: • A. remained in the bags for 3 days, then removed from the bags for the remaining 5 days; • B. remained in the bags for 4 days, then removed from the bags for the remaining 4 days. • C. remained in the bags for 8 days, then removed on the eighth day for evaluation.
# bananas [3] = experiment: Example US-4: placement into MAP after exposure to 1-MCP; settings: 1000 ppb, Day #8
# Text: Bananas were harvested and shipped to Ephrata, Pa. as in Example US-1 above. The bananas were also ripened as in Example US-1, except that the bananas remained in the bags in which they were shipped (poly liners) throughout the ripening process. Some of the poly liners were exposed to 1-MCP (1000 ppb) as in Example US-1 above, while others were not. Immediately after the conclusion of the exposure to 1-MCP, bananas were removed from the poly liners, divided into bunches. Some bunches had approximately of 1.4 kg (3 lb) and were placed into T-bags as described above. Other bunches were approximately 18 kg (40 lb) and were placed into MAP type D-40 as described above, using standard layering technique that interposes layers of the bag in between layers of bananas. Then the bananas were stored and evaluated as in Example US-1. Also, the bananas were eaten, and the firmness of the pulp was evaluated along with the overall quality of the eating experience.
# bananas [4] = experiment: Example US-5: various levels of 1-MCP; parameters: SS (sugar spots): scale not given here; settings: 7 days
# Protocol: Bananas were grown, shipped, and ripened as described in Example US-1. All bananas were in T-bags through the ripening cycle. At color stage 3.0 to 4.0, the bananas, still in T-bags, were placed in various airtight containers; in each container, a specified concentration of 1-MCP was released into the air; bananas remained in those containers for 12 hours. After that, half of each treatment group was transferred to MAP bags, and all bananas were placed into post-MCP storage as in US-1. At the end of 7 days, bananas were evaluated for sugar spots (SS), color stage (CS), and firmness (F). Firmness was measured with a Fruit Texture Analyzer (Güss Company, Republic of South Africa) using a probe of 8 mm diameter.
smiles,measurement,setting,value
"CC1=CC1 [1-MCP, 1-methylcyclopropene]",acceptability of bananas,"bananas [1]; MAP bags, day number 17 after treatment, held at 14° C.",still acceptable
same,onset of sugar spots,"bananas [1]; MAP bags, held in bags at 14° C.",showed a delay in the onset of sugar spots
same,additional time bananas remained acceptable after removal from MAP bags,"bananas [1]; after 17 days at 14° C., stored at approx. 22° C.",three
same,development of color and sugar spots,bananas [2]; 1000 ppb versus 300 ppb 1-MCP in the same type of bag,slower development of color and sugar spots
same,"extension of shelf life, compared to T bags with no 1-MCP",bananas [2]; MAP with non-zero 1-MCP,8 days
same,development of color and sugar spots after removal from bags,"bananas [2]; MAP, 300 ppb or 1000 ppb 1-MCP versus MAP with zero 1-MCP",slower development of color and sugar spots
same,development of color and sugar spots,"bananas [2]; MAP, 300 ppb or 1000 ppb 1-MCP versus T-bags",much slower development of color and sugar spots
same,development of color and sugar spots,"bananas [2]; T-bags, 300 ppb or 1000 ppb 1-MCP versus zero",slower development of color and sugar spots
same,Average color stage,bananas [3]; 1-MCP only (T-bag),4.71
same,Average sugar spot rating,bananas [3]; 1-MCP only (T-bag),3
same,eating experience,bananas [3]; 1-MCP only (T-bag),mediocre
same,pulp,bananas [3]; 1-MCP only (T-bag),soft
same,Average color stage,bananas [3]; MAP (type D-40) and 1-MCP,4.42
same,Average sugar spot rating,bananas [3]; MAP (type D-40) and 1-MCP,1
same,eating experience,bananas [3]; MAP (type D-40) and 1-MCP,excellent
same,pulp,bananas [3]; MAP (type D-40) and 1-MCP,firm
same,CS (color stage),"bananas [4]; MAP, 1 ppb 1-MCP",5.2
same,F (firmness),"bananas [4]; MAP, 1 ppb 1-MCP",0.584 kg
same,SS (sugar spots),"bananas [4]; MAP, 1 ppb 1-MCP",1.8
same,CS (color stage),"bananas [4]; MAP, 5 ppb 1-MCP",4.8
same,F (firmness),"bananas [4]; MAP, 5 ppb 1-MCP",0.602 kg
same,SS (sugar spots),"bananas [4]; MAP, 5 ppb 1-MCP",0.5
same,CS (color stage),"bananas [4]; MAP, 10 ppb 1-MCP",5.4
same,F (firmness),"bananas [4]; MAP, 10 ppb 1-MCP",0.599 kg
same,SS (sugar spots),"bananas [4]; MAP, 10 ppb 1-MCP",1.5
same,CS (color stage),"bananas [4]; MAP, 25 ppb 1-MCP",5.6
same,F (firmness),"bananas [4]; MAP, 25 ppb 1-MCP",0.603 kg
same,SS (sugar spots),"bananas [4]; MAP, 25 ppb 1-MCP",0.8
same,CS (color stage),"bananas [4]; MAP, 50 ppb 1-MCP",5.5
same,F (firmness),"bananas [4]; MAP, 50 ppb 1-MCP",0.593 kg
same,SS (sugar spots),"bananas [4]; MAP, 50 ppb 1-MCP",1.0
same,CS (color stage),"bananas [4]; MAP, 100 ppb 1-MCP",5.2
same,F (firmness),"bananas [4]; MAP, 100 ppb 1-MCP",0.581 kg
same,SS (sugar spots),"bananas [4]; MAP, 100 ppb 1-MCP",1.0
same,CS (color stage),"bananas [4]; MAP, 200 ppb 1-MCP",4.9
same,F (firmness),"bananas [4]; MAP, 200 ppb 1-MCP",0.592 kg
same,SS (sugar spots),"bananas [4]; MAP, 200 ppb 1-MCP",0.8
same,CS (color stage),"bananas [4]; MAP, 1000 ppb 1-MCP",6.2
same,F (firmness),"bananas [4]; MAP, 1000 ppb 1-MCP",0.617 kg
same,SS (sugar spots),"bananas [4]; MAP, 1000 ppb 1-MCP",1.8
same,CS (color stage),"bananas [4]; MAP, 5000 ppb 1-MCP",6.2
same,F (firmness),"bananas [4]; MAP, 5000 ppb 1-MCP",0.602 kg
same,SS (sugar spots),"bananas [4]; MAP, 5000 ppb 1-MCP",1.2
same,CS (color stage),"bananas [4]; MAP, 50000 ppb 1-MCP",5.6
same,F (firmness),"bananas [4]; MAP, 50000 ppb 1-MCP",0.585 kg
same,SS (sugar spots),"bananas [4]; MAP, 50000 ppb 1-MCP",2.5
same,CS (color stage),"bananas [4]; T-bag, 1 ppb 1-MCP",6.6
same,F (firmness),"bananas [4]; T-bag, 1 ppb 1-MCP",0.561 kg
same,SS (sugar spots),"bananas [4]; T-bag, 1 ppb 1-MCP",2.2
same,CS (color stage),"bananas [4]; T-bag, 5 ppb 1-MCP",6.6
same,F (firmness),"bananas [4]; T-bag, 5 ppb 1-MCP",0.571 kg
same,SS (sugar spots),"bananas [4]; T-bag, 5 ppb 1-MCP",2.8
same,CS (color stage),"bananas [4]; T-bag, 10 ppb 1-MCP",6.6
same,F (firmness),"bananas [4]; T-bag, 10 ppb 1-MCP",0.568 kg
same,SS (sugar spots),"bananas [4]; T-bag, 10 ppb 1-MCP",2.0
same,CS (color stage),"bananas [4]; T-bag, 25 ppb 1-MCP",6.2
same,F (firmness),"bananas [4]; T-bag, 25 ppb 1-MCP",0.576 kg
same,SS (sugar spots),"bananas [4]; T-bag, 25 ppb 1-MCP",2.5
same,CS (color stage),"bananas [4]; T-bag, 50 ppb 1-MCP",7.0
same,F (firmness),"bananas [4]; T-bag, 50 ppb 1-MCP",0.591 kg
same,SS (sugar spots),"bananas [4]; T-bag, 50 ppb 1-MCP",2.2
same,CS (color stage),"bananas [4]; T-bag, 100 ppb 1-MCP",7.0
same,F (firmness),"bananas [4]; T-bag, 100 ppb 1-MCP",0.571 kg
same,SS (sugar spots),"bananas [4]; T-bag, 100 ppb 1-MCP",2.5
same,CS (color stage),"bananas [4]; T-bag, 200 ppb 1-MCP",7.0
same,F (firmness),"bananas [4]; T-bag, 200 ppb 1-MCP",0.589 kg
same,SS (sugar spots),"bananas [4]; T-bag, 200 ppb 1-MCP",3.0
same,CS (color stage),"bananas [4]; T-bag, 1000 ppb 1-MCP",7.0
same,F (firmness),"bananas [4]; T-bag, 1000 ppb 1-MCP",0.601 kg
same,SS (sugar spots),"bananas [4]; T-bag, 1000 ppb 1-MCP",3.0
same,CS (color stage),"bananas [4]; T-bag, 5000 ppb 1-MCP",6.2
same,F (firmness),"bananas [4]; T-bag, 5000 ppb 1-MCP",0.579 kg
same,SS (sugar spots),"bananas [4]; T-bag, 5000 ppb 1-MCP",3.0
same,CS (color stage),"bananas [4]; T-bag, 50000 ppb 1-MCP",6.6
same,F (firmness),"bananas [4]; T-bag, 50000 ppb 1-MCP",0.563 kg
same,SS (sugar spots),"bananas [4]; T-bag, 50000 ppb 1-MCP",2.8
